The target of the test is ROCK2 (Homo sapiens, UniProt O75116). The test can be described thus: ROCK assay: phosphorylation of FITC peptide substrate, LABCHIP 3000 mobility shift. The conditions noted are these: 5 μM ATP, 1.5 μM peptide substrate; read-out: ROCK2 Activity (ROCK IC50 range). In kind it is biochemical. The essentials:
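IC50 values come from curve-fitting percent kinase inhibition across a compound dilution series. The reaction is started with Rho kinase variant in HEPES pH 7.5 buffer with MgCl2, Brij-35 and DTT, with 5 μM ATP, 1.5 μM FITC-labelled peptide and under 2% DMSO. After EDTA quench, product and substrate are separated by microfluidic mobility shift.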

The structures appear in SMILES notation. Counter-ions that a name gives are not always drawn.

Sequence of ROCK2 (O75116 whole entry, species assumed): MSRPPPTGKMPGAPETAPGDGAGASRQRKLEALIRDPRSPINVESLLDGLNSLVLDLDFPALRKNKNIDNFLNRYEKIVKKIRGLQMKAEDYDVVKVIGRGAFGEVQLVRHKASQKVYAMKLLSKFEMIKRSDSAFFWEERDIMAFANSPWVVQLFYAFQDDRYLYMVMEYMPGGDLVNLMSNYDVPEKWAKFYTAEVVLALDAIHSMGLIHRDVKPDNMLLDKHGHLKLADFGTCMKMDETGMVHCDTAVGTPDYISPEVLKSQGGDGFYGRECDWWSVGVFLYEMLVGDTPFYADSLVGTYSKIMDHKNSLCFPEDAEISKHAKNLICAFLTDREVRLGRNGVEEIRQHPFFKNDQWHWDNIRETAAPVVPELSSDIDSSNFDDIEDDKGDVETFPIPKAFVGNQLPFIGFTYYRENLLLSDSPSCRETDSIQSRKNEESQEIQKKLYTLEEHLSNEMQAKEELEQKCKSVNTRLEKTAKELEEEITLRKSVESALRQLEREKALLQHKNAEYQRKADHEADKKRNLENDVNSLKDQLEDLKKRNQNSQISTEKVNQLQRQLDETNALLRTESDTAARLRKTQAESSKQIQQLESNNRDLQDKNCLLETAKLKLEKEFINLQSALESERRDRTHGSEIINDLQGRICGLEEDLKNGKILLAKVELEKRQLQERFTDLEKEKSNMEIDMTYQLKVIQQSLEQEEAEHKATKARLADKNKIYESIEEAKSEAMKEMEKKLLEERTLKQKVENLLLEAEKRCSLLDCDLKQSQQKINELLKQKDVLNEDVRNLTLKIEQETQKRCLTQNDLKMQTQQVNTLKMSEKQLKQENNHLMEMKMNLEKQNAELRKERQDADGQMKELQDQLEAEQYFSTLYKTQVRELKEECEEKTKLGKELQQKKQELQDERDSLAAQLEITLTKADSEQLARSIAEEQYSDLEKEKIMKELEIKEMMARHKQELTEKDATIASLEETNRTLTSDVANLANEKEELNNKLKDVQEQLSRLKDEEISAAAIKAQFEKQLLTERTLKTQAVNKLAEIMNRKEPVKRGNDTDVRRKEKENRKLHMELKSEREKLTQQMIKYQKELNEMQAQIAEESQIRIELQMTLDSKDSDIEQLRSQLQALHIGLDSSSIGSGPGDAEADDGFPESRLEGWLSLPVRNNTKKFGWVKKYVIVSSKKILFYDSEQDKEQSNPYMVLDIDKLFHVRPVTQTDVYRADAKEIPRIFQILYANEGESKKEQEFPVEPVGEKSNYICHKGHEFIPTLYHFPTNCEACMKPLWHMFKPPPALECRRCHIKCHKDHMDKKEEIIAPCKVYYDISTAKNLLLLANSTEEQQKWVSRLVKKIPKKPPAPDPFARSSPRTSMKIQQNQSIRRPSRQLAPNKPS

One may read the IC50 as the concentration at which inhibition is half-maximal. `O=C(NC1CC2(C1)CC(c1n[nH]c(=O)c3ccccc13)C2)c1onc2ccccc12` [Example 78, N-((aR)-6-(4-oxo-3,4-dihydrophthalazin-1-yl)spiro[3.3]heptan-2-yl)benzo[c]isoxazole-3-carboxamide]: the IC50 lay in the range of 5.1 to 15 nM. Consider `[H][C@]1(c2n[nH]c(=O)c3ccccc32)C[C@]2(C[C@@H](NC(=O)c3ccc(OC)nc3)C2)C1` (stereo partly drawn) [Example 341, 6-methoxy-N-((aR)-6-(4-oxo-3,4-dihydrophthalazin-1-yl)spiro[3.3]heptan-2-yl)nicotinamide], for which the IC50 fell in the range of 15.1 to 100 nM. For the compound `O=C(NC1CC2(C1)CC(c1n[nH]c(=O)c3ccccc13)C2)c1cnn2cc(-c3c[nH]nc3C(F)(F)F)ccc12` (stereo not drawn) [Example 172, N-((αR)-6-(4-oxo-3,4-dihydrophthalazin-1-yl)spiro[3.3]heptan-2-yl)-6-(3-(trifluoromethyl)-1H-pyrazol-4-yl)pyrazolo[1,5-α]pyridine-3-carboxamide], the half-inhibitory concentration (IC50) is 2.01 to 5 nM. As for `O=C(NC1CC2(C1)CC(c1n[nH]c(=O)c3ccccc13)C2)c1noc(-c2ccc(F)cc2)n1` [Example 118, 5-(4-fluorophenyl)-N-((aR)-6-(4-oxo-3,4-dihydrophthalazin-1-yl)spiro[3.3]heptan-2-yl)-1,2,4-oxadiazole-3-carboxamide], the figure is 15.1 to 100 nM. As for `O=C(N[C@H]1CC2(C1)C[C@H](c1n[nH]c(=O)c3ccccc31)C2)c1ccn(CC(F)(F)F)n1` (single isomer, unassigned) [Example 15], the figure is 5.1 to 15 nM. As for `[H][C@]1(c2n[nH]c(=O)c3ccccc32)C[C@]2(C[C@@H](NC(=O)c3ccc(-c4nn[nH]n4)cc3)C2)C1` (stereo partly drawn) [Example 345, N-((aR)-6-(4-oxo-3,4-dihydrophthalazin-1-yl)spiro[3.3]heptan-2-yl)-4-(2H-tetrazol-5-yl)benzamide], the figure is 100 to 2100 nM; as for `Cc1ncc(-c2ccn3c(C(=O)NC4CC5(C4)CC(c4n[nH]c(=O)c6ccccc46)C5)cnc3c2)s1` [Example 455, 7-(2-methylthiazol-5-yl)-N-((aR)-6-(4-oxo-3,4-dihydrophthalazin-1-yl)spiro[3.3]heptan-2-yl)imidazo[1,2-a]pyridine-3-carboxamide], 2.01 to 5 nM; as for `COc1ccccc1-n1cc(C(=O)NC2CC3(C2)CC(c2n[nH]c(=O)c4ccccc24)C3)nn1` (centres unmarked) [Example 129, 1-(2-methoxyphenyl)-N-((αR)-6-(4-oxo-3,4-dihydrophthalazin-1-yl)spiro[3.3]heptan-2-yl)-1H-1,2,3-triazole-4-carboxamide], 5.1 to 15 nM.

For the compound `O=C(NC1CC2(C1)CC(c1n[nH]c(=O)c3ccccc13)C2)C1Cc2cc(Br)ccc2N1` [Example 468, 5-bromo-N-((aR)-6-(4-oxo-3,4-dihydrophthalazin-1-yl)spiro[3.3]heptan-2-yl)indoline-2-carboxamide,TFA], the IC50 was 100 to 2100 nM. The same measure for `O=c1[nH]nc([C@H]2CC3(C[C@H](Nc4ccccc4[N+](=O)[O-])C3)C2)c2ccccc12` (stereo partly drawn) [Example 460, 4-((aR)-6-((2-nitrophenyl)amino)spiro[3.3]heptan-2-yl)phthalazin-1(2H)-one]: 15.1 to 100 nM; for `O=C(NC1CC2(C1)CC(c1n[nH]c(=O)c3ccccc13)C2)c1cnn2cc(OCCn3cccn3)ccc12` [Example 81, 6-(2-(1H-pyrazol-1-yl)ethoxy)-N-((aR)-6-(4-oxo-3,4-dihydrophthalazin-1-yl)spiro[3.3]heptan-2-yl)pyrazolo[1,5-a]pyridine-3-carboxamide]: 0.2 to 2 nM. The same measure for `[H][C@]1(c2n[nH]c(=O)c3ccccc32)C[C@]2(C[C@@H](NC(=O)c3ccc(-c4cnn(C5CC5)c4)c(F)c3)C2)C1` (stereo partly drawn) [Example 448, 4-(1-cyclopropyl-1H-pyrazol-4-yl)-3-fluoro-N-((aR)-6-(4-oxo-3,4-dihydrophthalazin-1-yl)spiro[3.3]heptan-2-yl)benzamide]: 2.01 to 5 nM; for `CC(C)n1cc(-c2ccc3c(C(=O)NC4CC5(C4)CC(c4n[nH]c(=O)c6ccccc46)C5)cnn3c2)c(C(F)(F)F)n1` [Example 224, 6-(1-isopropyl-3-(trifluoromethyl)-1H-pyrazol-4-yl)-N-((aR)-6-(4-oxo-3,4-dihydrophthalazin-1-yl)spiro[3.3]heptan-2-yl)pyrazolo[1,5-a]pyridine-3-carboxamide]: 0.2 to 2 nM; for `O=C(Cc1cccc2ccccc12)NC1CC2(C1)CC(c1n[nH]c(=O)c3ccccc13)C2` (centres unmarked) [Example 3, 2-(naphthalen-1-yl)-N-[6-(4-oxo-3,4-dihydrophthalazin-1-yl)spiro[3.3]heptan-2-yl]acetamide]: 100 to 2100 nM. As for `O=C(NC1CC2(C1)CC(c1n[nH]c(=O)c3ccccc13)C2)c1cnn2cc(COCC3CCOCC3)ccc12` [Example 211, N-((aR)-6-(4-oxo-3,4-dihydrophthalazin-1-yl)spiro[3.3]heptan-2-yl)-6-(((tetrahydro-2H-pyran-4-yl)methoxy)methyl)pyrazolo[1,5-a]pyridine-3-carboxamide], the figure is 2.01 to 5 nM; as for `[H][C@]1(c2n[nH]c(=O)c3ccccc32)C[C@]2(C[C@@H](NC(=O)c3cnc4cc(N5CCC(F)(F)CC5)ccn34)C2)C1` (stereo partly drawn) [Example 391, 7-(4,4-difluoropiperidin-1-yl)-N-((aR)-6-(4-oxo-3,4-dihydrophthalazin-1-yl)spiro[3.3]heptan-2-yl)imidazo[1,2-a]pyridine-3 carboxamide], 0.2 to 2 nM.

For the compound `[H][C@]1(c2n[nH]c(=O)c3ccccc32)C[C@]2(C[C@@H](NC(=O)c3ccc4ccccc4n3)C2)C1` (stereo partly drawn) [Example 330, N-((aR)-6-(4-oxo-3,4-dihydrophthalazin-1-yl)spiro[3.3]heptan-2-yl)quinoline-2-carboxamide], the concentration for half-maximal inhibition (IC50) was 15.1 to 100 nM.

`N#Cc1c(O)ccc2c(C(=O)NC3CC4(C3)CC(c3n[nH]c(=O)c5ccccc35)C4)cnn12` [Example 111, 7-cyano-6-hydroxy-N-((aR)-6-(4-oxo-3,4-dihydrophthalazin-1-yl)spiro[3.3]heptan-2-yl)pyrazolo[1,5-a]pyridine-3-carboxamide]: the IC50 was in the range of 15.1 to 100 nM. Consider `[H][C@]1(c2n[nH]c(=O)c3ccccc32)C[C@]2(C[C@@H](NC(=O)c3ccc(N(C)C)nc3)C2)C1` (stereo partly drawn) [Example 356, 6-(dimethylamino)-N-((aR)-6-(4-oxo-3,4-dihydrophthalazin-1-yl)spiro[3.3]heptan-2-yl)nicotinamide], for which the 50% inhibitory concentration (IC50) was 15.1 to 100 nM. The same measure for `[H][C@]1(c2n[nH]c(=O)c3ccccc32)C[C@]2(C[C@@H](NC(=O)c3ccc(-c4cnco4)cc3)C2)C1` (stereo partly drawn) [Example 358, 4-(oxazol-5-yl)-N-((aR)-6-(4-oxo-3,4-dihydrophthalazin-1-yl)spiro[3.3]heptan-2-yl)benzamide]: 15.1 to 100 nM; for `O=C(NC1CC2(C1)CC(c1n[nH]c(=O)c3ccccc13)C2)c1cnc2[nH]cnc2c1` [Example 310, N-((aR)-6-(4-oxo-3,4-dihydrophthalazin-1-yl)spiro[3.3]heptan-2-yl)-3H-imidazo[4,5-b]pyridine-6-carboxamide]: 15.1 to 100 nM. As for `CN(C)S(=O)(=O)c1ccc2c(c1)CCN2C(=O)NC1CC2(C1)CC(c1n[nH]c(=O)c3ccccc13)C2` [Example 260, 5-(N,N-dimethylsulfamoyl)-N-((aR)-6-(4-oxo-3,4-dihydrophthalazin-1-yl)spiro[3.3]heptan-2-yl)indoline-1-carboxamide], the IC50 was 5.1 to 15 nM. The same measure for `Cn1cc(-c2ccc3c(c2)CCN3C(=O)NC2CC3(C2)CC(c2n[nH]c(=O)c4ccccc24)C3)cn1` [Example 235, 5-(1-methyl-1H-pyrazol-4-yl)-N-((aR)-6-(4-oxo-3,4-dihydrophthalazin-1-yl)spiro[3.3]heptan-2-yl)indoline-1-carboxamide]: 0.2 to 2 nM; for `[H][C@]1(c2n[nH]c(=O)c3ccccc32)C[C@]2(C[C@@H](NC(=O)c3cnc4cc(N5CCC(F)(F)C5)ccn34)C2)C1` (stereo partly drawn) [Example 392, 7-(3,3-difluoropyrrolidin-1-yl)-N-((aR)-6-(4-oxo-3,4-dihydrophthalazin-1-yl)spiro[3.3]heptan-2-yl)imidazo[1,2-a]pyridine-3 carboxamide]: 0.2 to 2 nM. As for `[H][C@]1(c2n[nH]c(=O)c3ccccc32)C[C@]2(C[C@@H](NC(=O)c3cnn4cc(OCC(C)(C)OC(=O)CN)ccc34)C2)C1` (stereo partly drawn) [Example 268, 2-methyl-1-((3-(((aR)-6-(4-oxo-3,4-dihydrophthalazin-1-yl)spiro[3.3]heptan-2-yl)carbamoyl)pyrazolo[1,5-a]pyridin-6-yl)oxy)propan-2-yl2-aminoacetate, TFA], the figure is 0.2 to 2 nM; as for `O=C(NC1CC2(C1)CC(c1n[nH]c(=O)c3ccccc13)C2)c1cnn2cc(N3CC(F)C3)ccc12` [Example 91, 6-(3-fluoroazetidin-1-yl)-N-((aR)-6-(4-oxo-3,4-dihydrophthalazin-1-yl)spiro[3.3]heptan-2-yl)pyrazolo[1,5-a]pyridine-3-carboxamide], 0.2 to 2 nM; as for `O=C(NC1CC2(C1)CC(c1n[nH]c(=O)c3ccccc13)C2)c1cnn2cc(-c3cnn(C(F)F)c3)ccc12` (stereo not drawn) [Example 167, 6-(1-(difluoromethyl)-1H-pyrazol-4-yl)-N-((αR)-6-(4-oxo-3,4-dihydrophthalazin-1-yl)spiro[3.3]heptan-2-yl)pyrazolo[1,5-α]pyridine-3-carboxamide], 0.2 to 2 nM. Regarding `O=C(NC1CC2(C1)CC(c1n[nH]c(=O)c3ccccc13)C2)c1ccnn1CC1CC1` [Example 103, 1-(cyclopropylmethyl)-N-((aR)-6-(4-oxo-3,4-dihydrophthalazin-1-yl)spiro[3.3]heptan-2-yl)-1H-pyrazole-5-carboxamide], the concentration for half-maximal inhibition (IC50) is 15.1 to 100 nM.

Turning to `CC(=O)N1CCc2c(C(=O)N[C@H]3CC4(C3)C[C@H](c3n[nH]c(=O)c5ccccc53)C4)csc2C1` (stereo partly drawn) [Example 274, 6-acetyl-N-((aR)-6-(4-oxo-3,4-dihydrophthalazin-1-yl)spiro[3.3]heptan-2-yl)-4,5,6,7-tetrahydrothieno[2,3-c]pyridine-3-carboxamide], the IC50 is 5.1 to 15 nM.
